{
  "source": "patent US8507420B2",
  "about": "“Solvent composition” (Toyota Jidosha Kabushiki Kaisha, priority 2009, dated 2013)",
  "key": {"[1]": {"assay": "Thermal stability of SOD mimetic compounds (retained SOD activity after thermal process in solvents/oils)", "format": "physicochemical", "settings": "for decline in activity after thermal process: dehydrated ethanol, 60 minutes, FIG. 4; for retained activity / retained activity after thermal process: 120 minutes; for retained activity after thermal process: solvent not stated", "text": "(§1) In this example, Mn-cpx3, Mn-TBAP, Mn-TMPyP and Mn-TM-2-PyP were purchased from Aldrich Company, and were used as SOD mimetic compounds. These compounds are low-molecular complex having π-conjugate system. These compounds are basically water-soluble, and are also soluble in ethanol and in lubricating oils. In the case where an SOD mimetic compound was to be dissolved in ethylene glycol, and in a food oil containing vegetable sterol and glycerin ester as main components, the SOD mimetic compound was first dissolved in ethanol, and then the ethanol solution was added into ethylene glycol and a food oil. In the case where an SOD mimetic compound was to be dissolved in an engine oil (trade name: Eneos Motor Oil), the SOD mimetic compound was firstly dissolved in dimethyl sulfoxide (DMSO), and then the DMSO solution was added into the engine oil. As for the concentration conditions for thermal stability, investigation was performed in the presence of 1 to 10 μg/mL of an SOD mimetic compound in the water-based solution and 10 to 50 μg/mL of an SOD mimetic compound in the oil-based solution, with 10% of ethanol or DMSO, in the temperature range of 50 to 140° C.\nThe SOD activity of the SOD mimetic compounds was measured by using as an index the oxidation of a water-soluble tetrazolium salt (WST) by oxygen radicals generated from xanthin-xanthin oxidase. Specifically, the WST was used as a substrate of the oxidation by oxygen radicals, and the activity measurement was performed by using as an index the difference in the production of water-soluble tetrazolium formazan made by the presence and the absence of the SOD mimetic compound (see the following document: H. Ueda, D. Kawana, S. Maeda and M. Sawamura, Biosci. Biotechnol. Biochem., 63, 485-488, 1999). As the WST is oxidized to become water-soluble tetrazolium formazan, ultraviolet absorption occurs at 450 nm. Therefore, by measuring this ultraviolet absorption, the oxidation reaction by oxygen radicals can easily be measured. The activity measurement buffer was a 35 mM sodium carbonate solution (pH 10.2) containing 0.17 mM of xanthin and 0.11 mM of EDTA. The oxidation substrate used was 0.24 mM of the WST. The SOD mimetic compounds were dissolved in ethanol or DMSO. The concentrations thereof at the time of measurement of activity were 0.1 to 0.8 μg/mL.\nIn this example, the vegetable food oil used was diacyl glycerol. Mn-TMPyP retained 50% of the activity at 70° C. after 120 minutes, and 40% of the activity at 100° C. after 120 minutes. […] It has become clear that Mn-cpx3 is particularly excellent in the SOD-mimetic activity and the thermal stability in food oil.\nWith regard to Mn-cpx3, which was considered to be the most excellent in activity and thermal stability, the stability thereof in other oil solutions was investigated. […] However, in engine oil, the stability sharply declines to about 10 to 20%."}, "[2]": {"assay": "SOD activity measurement (WST oxidation by oxygen radicals from xanthin-xanthin oxidase, absorption at 450 nm)", "format": "biochemical", "settings": "FIG. 2", "description": "In this activity measurement system, the WST used as the oxidation substrate can be considered to be a model compound as the substance that is subject to oxidation by oxygen radicals, that is, as the functional substance. […]"}, "[3]": {"assay": "Solubility of SOD mimetic compounds in water, ethanol, oils", "format": "physicochemical", "settings": "solvent as stated in value", "text": "as §1"}, "[4]": {"settings": "vegetable food oil (diacyl glycerol), 100° C., FIG. 5"}},
  "note": "“Also recorded” adds a separate entry of the source.",
  "data": [
    {"compound": "O=C(O)c1ccc(C2=C3C=CC(=N3)C(c3ccc(C(=O)O)cc3)=c3ccc([nH]3)=C(c3ccc(C(=O)O)cc3)c3ccc([n-]3)C(c3ccc(C(=O)O)cc3)c3ccc2[n-]3)cc1.[Cl-].[Mn+3]", "note": "(stereo not shown) [Mn-TBAP, Mn(III) tetrakis(4-benzoic acid)porphyrin chloride]", "values": [
      {"measurement": "decline in activity after thermal process", "setting": "[1]; 70° C.", "result": "substantially no decline in the activity"}
    ]},
    {"compound": "C[n+]1ccc(-c2c3nc(c(-c4cc[n+](C)cc4)c4ccc([nH]4)c(-c4cc[n+](C)cc4)c4nc(c(-c5cc[n+](C)cc5)c5ccc2[nH]5)C=C4)C=C3)cc1.[Mn+3]", "note": "[Mn-TMPyP, Mn(III) tetrakis(1-methyl-4-pyridyl)porphyrin]", "values": [
      {"measurement": "retained activity", "setting": "[1]; vegetable food oil (diacyl glycerol), 70° C., FIG. 5", "result": 50, "unit": "%"},
      {"measurement": "retained activity", "setting": "[1]; [4]", "result": 40, "unit": "%"}
    ]},
    {"compound": "manganese (Mn) complex of 7-hydroxyflavone [Mn-cpx3]", "values": [
      {"measurement": "relative activity per unit weight with reference to the enzyme activity of the PEG-modified A. per SOD", "setting": "[2]; after the process in ethanol at 50° C. for 10 minutes", "result": 850, "unit": "times"},
      {"measurement": "relative activity per unit weight with reference to the enzyme activity of the PEG-modified A. per SOD", "setting": "[2]; in water", "result": 460, "unit": "times"},
      {"measurement": "retained activity after thermal process", "setting": "[1]; 50° C.", "result": "~100", "unit": "%"},
      {"measurement": "retained activity after thermal process", "setting": "[1]; 100° C.", "result": "≥ 70", "unit": "%"},
      {"measurement": "decline in activity after thermal process", "setting": "[1]; 70° C.", "result": "substantially no decline in the activity"},
      {"measurement": "retained activity", "setting": "[1]; ethylene glycol, 140° C., FIG. 6", "result": 70, "unit": "%"},
      {"measurement": "retained activity", "setting": "[1]; [4]", "result": 60, "unit": "%"},
      {"measurement": "retained activity", "setting": "[1]; vegetable food oil (diacyl glycerol), 140° C., FIG. 5", "result": 50, "unit": "%"},
      {"measurement": "stability in water-based ethanol", "setting": "[1]; water-based ethanol", "result": "highly stable"},
      {"measurement": "solubility", "setting": "[3]", "result": "soluble in ethylene glycol and in vegetable oil; also recorded: soluble even in oil solutions"}
    ]}
  ]
}
